From patent US9416347B2, “Method of treating bacterial contamination in a microalgae culture with pH shock” (Heliae Development LLC, priority 2014, dated 2016)
Read-outs that look alike come from different tables or passages of the source.

Legend:
Chlorella sp. [1] = conditions: culture at 1,029 mg/L acetate, pH 3.5 for 15 minutes, returned to 7.5 with 2 M NaOH
Procedure: The pH treated culture samples were maintained at the culture pH of 3.5 for 15 minutes before returning the culture pH to 7.5 by adding 2 M NaOH.
The pH treatment was applied directly into the culture, without previous concentration or subsequent dilution through inoculation into a fresh media. All cultures were incubated with shaking at 100 rpm in 5% carbon dioxide and 25° C. […] 100 μM photon/m^2 s of light was also provided to create mixotrophic growth conditions. The cultures were monitored for 4 days (96 hours with dry weight samples taken at 0, 48, and 96 hours). Residual acetate analyses were carried at the end of the experiment.

Chlorella sp. [2] = conditions: pH lowered from about 7.5 to 3.5 for 15 minutes, raised back with 5M NaOH
Procedure: The first 400 ml culture was maintained as an untreated control at a pH of about 7.5. […] The pH treatments were applied directly to the cultures, without previous concentration of the microalgae or subsequent dilution through inoculation into fresh culture media. All cultures were incubated with shaking at 100 rpm in 5% carbon dioxide and 25° C. […] 100 μM photon/m^2 s of light was also provided to create mixotrophic growth conditions. The cultures were monitored for 4 days (96 hours with dry weight samples taken at 0, 48, and 96 hours). Live bacteria count samples were taken at 0 and 48 hours, and quantified using aerobic colony forming units (CFU) obtained from plate counts utilizing Petrifilm available from 3M (St. Paul, Minn.). A bacteria to microalgae ratio was also quantified using guava flow cytometry.

[3] = in water; cited from earlier work
Chlorella sp. [4] = tested on: Chlorella sp.
Procedure: 100 mL volume cultures were prepared in 250 mL flasks, and cultured at a temperature of 25° C., a shaking frequency of 100 rpm, and a light intensity of 100 μM photon/m^2 s for 7 days (168 hours). The cultures were inoculated into two times BG-11 culture media at a cell density of 1.12 g/L. The different treatments of sodium acetate consisted of concentrations of 0, 2.5, 5, 7.5, 10, 20, 30, and 40 g/L. Samples were taken every 24 hours to measure the cell dry weights (g/L) of the cultures.

[5] = tested on: live bacteria in mixotrophic culture of Chlorella; conditions: for Total live bacteria count: pH lowered to 3.5 with hydrochloric acid
Procedure: The 2 L sample was split into equal 1 L cultures in flasks, and incubated at 25° C. and 100 rpm (shaking) for 24 hours to allow metabolization of any residual acetate in the cultures. The two cultures were then blended together and then separated into equal 1 L cultures to ensure homogeneity in the two cultures. […] Samples were taken from both cultures to quantify the initial live bacteria count and subsequent counts using aerobic colony forming units (CFU) obtained from plate counts utilizing Petrifilm available from 3M (St. Paul, Minn.).

CC(=O)O [Acetic acid, acetic acid]
Cell Dry Weight (Chlorella sp. [1]; 0 h): 0.80 ± 0.02 g/L
Cell Dry Weight (Chlorella sp. [1]; 48 h): 0.78 ± 0.06 g/L
Cell Dry Weight (Chlorella sp. [1]; 96 h): 0.89 ± 0.01 g/L
cell dry weight (Chlorella sp. [2]; 0 h): 0.76 ± 0.00 g/L
cell dry weight (Chlorella sp. [2]; 48 h): 1.73 ± 0.04 g/L
cell dry weight (Chlorella sp. [2]; 96 h): 3.46 ± 0.09 g/L

O=C(O)CC(O)C(=O)O (centres unmarked) [malic acid]
pKa [3]: about 3.4

CCCCCCCCCCCCCCCC(=O)O [palmitic acid]
pKa [3]: about 4.7

CC(=O)C(=O)O [pyruvic acid]
pKa [3]: about 2.5

CC(=O)[O-].[Na+] [sodium acetate]
Growth of Chlorella (Chlorella sp. [4]; 2.5 g/L sodium acetate): 0.620 g/L day
Cell dry weights of treatments by Concentration of Sodium Acetate (Chlorella sp. [4]; 2.5 g/L sodium acetate, 0 h): 0.12 g/L
Cell dry weights of treatments by Concentration of Sodium Acetate (Chlorella sp. [4]; 2.5 g/L sodium acetate, 24 h): 0.23 g/L
Cell dry weights of treatments by Concentration of Sodium Acetate (Chlorella sp. [4]; 2.5 g/L sodium acetate, 48 h): 0.85 g/L
Cell dry weights of treatments by Concentration of Sodium Acetate (Chlorella sp. [4]; 2.5 g/L sodium acetate, 72 h): 1.10 g/L
Cell dry weights of treatments by Concentration of Sodium Acetate (Chlorella sp. [4]; 2.5 g/L sodium acetate, 144 h): 2.72 g/L
Cell dry weights of treatments by Concentration of Sodium Acetate (Chlorella sp. [4]; 2.5 g/L sodium acetate, 168 h): 3.23 g/L
Growth of Chlorella (Chlorella sp. [4]; 5 g/L sodium acetate): 0.065 g/L day
Cell dry weights of treatments by Concentration of Sodium Acetate (Chlorella sp. [4]; 5 g/L sodium acetate, 0 h): 0.12 g/L
Cell dry weights of treatments by Concentration of Sodium Acetate (Chlorella sp. [4]; 5 g/L sodium acetate, 24 h): 0.19 g/L
Cell dry weights of treatments by Concentration of Sodium Acetate (Chlorella sp. [4]; 5 g/L sodium acetate, 48 h): 0.25 g/L
Cell dry weights of treatments by Concentration of Sodium Acetate (Chlorella sp. [4]; 5 g/L sodium acetate, 72 h): 0.55 g/L
Cell dry weights of treatments by Concentration of Sodium Acetate (Chlorella sp. [4]; 5 g/L sodium acetate, 144 h): 1.89 g/L
Cell dry weights of treatments by Concentration of Sodium Acetate (Chlorella sp. [4]; 5 g/L sodium acetate, 168 h): 2.41 g/L
Cell dry weights of treatments by Concentration of Sodium Acetate (Chlorella sp. [4]; 7.5 g/L sodium acetate, 0 h): 0.12 g/L
Cell dry weights of treatments by Concentration of Sodium Acetate (Chlorella sp. [4]; 7.5 g/L sodium acetate, 24 h): 0.17 g/L
Cell dry weights of treatments by Concentration of Sodium Acetate (Chlorella sp. [4]; 7.5 g/L sodium acetate, 48 h): 0.15 g/L
Cell dry weights of treatments by Concentration of Sodium Acetate (Chlorella sp. [4]; 7.5 g/L sodium acetate, 72 h): 0.13 g/L
Cell dry weights of treatments by Concentration of Sodium Acetate (Chlorella sp. [4]; 7.5 g/L sodium acetate, 144 h): 0.10 g/L
Cell dry weights of treatments by Concentration of Sodium Acetate (Chlorella sp. [4]; 7.5 g/L sodium acetate, 168 h): 0.07 g/L
Cell dry weights of treatments by Concentration of Sodium Acetate (Chlorella sp. [4]; 10 g/L sodium acetate, 0 h): 0.12 g/L
Cell dry weights of treatments by Concentration of Sodium Acetate (Chlorella sp. [4]; 10 g/L sodium acetate, 24 h): 0.13 g/L
Cell dry weights of treatments by Concentration of Sodium Acetate (Chlorella sp. [4]; 10 g/L sodium acetate, 48 h): 0.16 g/L
Cell dry weights of treatments by Concentration of Sodium Acetate (Chlorella sp. [4]; 10 g/L sodium acetate, 72 h): 0.11 g/L
Cell dry weights of treatments by Concentration of Sodium Acetate (Chlorella sp. [4]; 10 g/L sodium acetate, 144 h): 0.09 g/L
Cell dry weights of treatments by Concentration of Sodium Acetate (Chlorella sp. [4]; 10 g/L sodium acetate, 168 h): 0.00 g/L
Cell dry weights of treatments by Concentration of Sodium Acetate (Chlorella sp. [4]; 20 g/L sodium acetate, 0 h): 0.12 g/L
Cell dry weights of treatments by Concentration of Sodium Acetate (Chlorella sp. [4]; 20 g/L sodium acetate, 24 h): 0.16 g/L
Cell dry weights of treatments by Concentration of Sodium Acetate (Chlorella sp. [4]; 20 g/L sodium acetate, 48 h): 0.13 g/L
Cell dry weights of treatments by Concentration of Sodium Acetate (Chlorella sp. [4]; 20 g/L sodium acetate, 72 h): 0.12 g/L
Cell dry weights of treatments by Concentration of Sodium Acetate (Chlorella sp. [4]; 20 g/L sodium acetate, 144 h): 0.07 g/L
Cell dry weights of treatments by Concentration of Sodium Acetate (Chlorella sp. [4]; 20 g/L sodium acetate, 168 h): 0.00 g/L
Cell dry weights of treatments by Concentration of Sodium Acetate (Chlorella sp. [4]; 30 g/L sodium acetate, 0 h): 0.12 g/L
Cell dry weights of treatments by Concentration of Sodium Acetate (Chlorella sp. [4]; 30 g/L sodium acetate, 24 h): 0.14 g/L
Cell dry weights of treatments by Concentration of Sodium Acetate (Chlorella sp. [4]; 30 g/L sodium acetate, 48 h): 0.11 g/L
Cell dry weights of treatments by Concentration of Sodium Acetate (Chlorella sp. [4]; 30 g/L sodium acetate, 72 h): 0.09 g/L
Cell dry weights of treatments by Concentration of Sodium Acetate (Chlorella sp. [4]; 30 g/L sodium acetate, 144 h): 0.08 g/L
Cell dry weights of treatments by Concentration of Sodium Acetate (Chlorella sp. [4]; 30 g/L sodium acetate, 168 h): 0.00 g/L
Cell dry weights of treatments by Concentration of Sodium Acetate (Chlorella sp. [4]; 40 g/L sodium acetate, 0 h): 0.12 g/L
Cell dry weights of treatments by Concentration of Sodium Acetate (Chlorella sp. [4]; 40 g/L sodium acetate, 24 h): 0.11 g/L
Cell dry weights of treatments by Concentration of Sodium Acetate (Chlorella sp. [4]; 40 g/L sodium acetate, 48 h): 0.09 g/L
Cell dry weights of treatments by Concentration of Sodium Acetate (Chlorella sp. [4]; 40 g/L sodium acetate, 72 h): 0.10 g/L
Cell dry weights of treatments by Concentration of Sodium Acetate (Chlorella sp. [4]; 40 g/L sodium acetate, 144 h): 0.09 g/L
Cell dry weights of treatments by Concentration of Sodium Acetate (Chlorella sp. [4]; 40 g/L sodium acetate, 168 h): 0.00 g/L
tolerance limit for this strain of Chlorella (Chlorella sp. [4]; as restated in Example 10): 7500 mg/L
Growth of Chlorella (Chlorella sp. [4]; concentrations of 7.5 g/L and higher): did not show any growth
acetate concentration tolerance for Chlorella (Chlorella sp. [4]; mixotrophic flask culture, 7 days): approximately 7.5 g/L
live bacteria counts (below detection) ([5]; 2.5 g/L sodium acetate, pH 3.5 with HCl, after 60 minutes): < 1,000 CFU/ml
live bacteria ([5]; 2.5 g/L sodium acetate, pH 3.5 with HCl, after 180 minutes): no measurable live bacterium
Total live bacteria count ([5]; 2.5 g/L sodium acetate, 0 min): 5.00E+06 CFU
Total live bacteria count ([5]; 2.5 g/L sodium acetate, 5 min): 8.00E+04 CFU
Total live bacteria count ([5]; 2.5 g/L sodium acetate, 15 min): 4.00E+04 CFU
Total live bacteria count ([5]; 2.5 g/L sodium acetate, 30 min): none detected
Total live bacteria count ([5]; 2.5 g/L sodium acetate, 60 min): 1.00E+03 CFU
Total live bacteria count ([5]; 2.5 g/L sodium acetate, 180 min): 1.00E+03 CFU
reduction in live bacteria ([5]; sodium acetate present and treated with second acid, after 60 minutes): 3.5 order of magnitude
